Values of other authors in patent US6726673B1, “Methods and apparatus for improved administration of testosterone pharmaceuticals” (Zars, Inc., priority 1999, dated 2004).

Settings: following intramuscular injection, absorbed gradually from the lipid tissue phase at the injection site

## CCCCCCC(=O)O[C@H]1CC[C@H]2[C@@H]3CCC4=CC(=O)CC[C@]4(C)[C@H]3CC[C@]12C [testosterone enanthate]
  duration of action: 2-4 weeks
